# In ChEMBL document CHEMBL4673381, “Novel Hexahydro-1H-Pyrazino[1,2-a]pyrazine Compounds for Treating Autoimmune Diseases” (ACS Med Chem Lett, 2021):
# Target: T1, Toll-like receptor 9 (Homo sapiens, UniProt Q9NR96)
# T1 sequence (Q9NR96 whole entry): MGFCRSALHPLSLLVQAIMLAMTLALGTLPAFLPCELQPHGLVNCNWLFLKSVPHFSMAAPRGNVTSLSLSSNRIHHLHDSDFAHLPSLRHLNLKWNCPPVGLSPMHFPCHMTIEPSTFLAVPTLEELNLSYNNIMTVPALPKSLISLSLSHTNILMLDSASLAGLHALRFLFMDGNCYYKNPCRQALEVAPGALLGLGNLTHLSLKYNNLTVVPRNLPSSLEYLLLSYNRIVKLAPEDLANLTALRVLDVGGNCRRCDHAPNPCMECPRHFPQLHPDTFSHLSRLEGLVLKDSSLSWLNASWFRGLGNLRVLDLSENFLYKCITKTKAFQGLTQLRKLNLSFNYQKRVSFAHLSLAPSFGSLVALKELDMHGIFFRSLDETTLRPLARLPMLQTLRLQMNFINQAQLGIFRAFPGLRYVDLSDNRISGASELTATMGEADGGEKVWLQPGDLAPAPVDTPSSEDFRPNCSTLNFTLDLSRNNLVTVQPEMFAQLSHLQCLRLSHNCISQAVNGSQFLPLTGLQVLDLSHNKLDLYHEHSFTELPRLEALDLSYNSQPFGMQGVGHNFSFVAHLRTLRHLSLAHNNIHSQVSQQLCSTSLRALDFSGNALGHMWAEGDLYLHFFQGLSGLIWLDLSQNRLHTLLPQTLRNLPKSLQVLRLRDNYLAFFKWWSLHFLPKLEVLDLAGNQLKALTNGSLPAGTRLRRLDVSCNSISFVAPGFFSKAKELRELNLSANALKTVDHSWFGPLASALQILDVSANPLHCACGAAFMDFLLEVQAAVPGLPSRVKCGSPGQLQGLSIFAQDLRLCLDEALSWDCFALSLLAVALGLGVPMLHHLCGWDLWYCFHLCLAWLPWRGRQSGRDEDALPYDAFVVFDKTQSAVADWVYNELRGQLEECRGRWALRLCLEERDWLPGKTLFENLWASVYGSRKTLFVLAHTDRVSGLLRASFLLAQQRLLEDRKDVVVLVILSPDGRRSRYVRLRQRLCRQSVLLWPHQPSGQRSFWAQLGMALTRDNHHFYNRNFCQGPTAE
# Assay: Inhibition of human TLR9 expressed in HEK-Blue cells assessed as inhibition of ODN2006-induced NF-kappaB and AP-1 activation measured after 20 hrs by quanti-blue based SEAP reporter gene assay
# Type: cell-based, HEK-Blue hTLR9
row,SMILES,IC50 [nM]
1,[2H]c1ccc2c(N3CC4CN(c5ncc(N6CCOC[C@H](N)C6)cc5C)CCN4[C@@H](C)C3)ccc(C#N)c2n1 (some centres not stated),70
2,C[C@@H]1CN(c2ccc(C#N)c3ncccc23)C[C@@H]2CN(c3cccc4c3CCNC4)CCN21,54
